# In PubChem BioAssay (NCI):
#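 Protocol summary: plate cells (96-well), add compound at 5 concentrations, incubate 48 h, interpolate endpoints linearly. The concentration for 50% growth inhibition is given as GI50. TGI denotes the concentration required for complete inhibition of growth.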
# How the values were obtained:
# Test in all cases: NCI-60 cell line screen, 48 h
# ACHN renal = system: ACHN renal
# DU-145 prostate = system: DU-145 prostate
# MDA-MB-231 breast = system: MDA-MB-231 breast
# MDA-MB-435 = system: MDA-MB-435
# OVCAR-4 ovarian = system: OVCAR-4 ovarian
# OVCAR-5 ovarian = system: OVCAR-5 ovarian
# SK-MEL-2 melanoma = system: SK-MEL-2 melanoma
# SK-MEL-28 melanoma = system: SK-MEL-28 melanoma
# SK-OV-3 ovarian = system: SK-OV-3 ovarian
# T-47D breast = system: T-47D breast
# 786-0 renal = system: 786-0 renal
# A549 NSCLC = system: A549 NSCLC
# CAKI-1 renal = system: CAKI-1 renal
# CCRF-CEM leukemia = system: CCRF-CEM leukemia
# COLO 205 colon = system: COLO 205 colon
# EKVX NSCLC = system: EKVX NSCLC
# HCT-116 colon = system: HCT-116 colon
# HCT-15 colon = system: HCT-15 colon
# HL-60(TB) leukemia = system: HL-60(TB) leukemia
# HOP-62 NSCLC = system: HOP-62 NSCLC
# HOP-92 NSCLC = system: HOP-92 NSCLC
# HS 578T breast = system: HS 578T breast
# HT29 colon = system: HT29 colon
# IGROV1 ovarian = system: IGROV1 ovarian
# K-562 leukemia = system: K-562 leukemia
# KM12 colon = system: KM12 colon
# LOX IMVI melanoma = system: LOX IMVI melanoma
# M14 melanoma = system: M14 melanoma
# MALME-3M melanoma = system: MALME-3M melanoma
# MCF7 breast = system: MCF7 breast
# MOLT-4 leukemia = system: MOLT-4 leukemia
# NCI-H226 lung = system: NCI-H226 lung
# NCI-H23 lung = system: NCI-H23 lung
# NCI-H460 lung = system: NCI-H460 lung
# NCI-H522 lung = system: NCI-H522 lung
# NCI/ADR-RES ovarian = system: NCI/ADR-RES ovarian
# OVCAR-3 ovarian = system: OVCAR-3 ovarian
# OVCAR-8 ovarian = system: OVCAR-8 ovarian
# PC-3 prostate = system: PC-3 prostate
# RPMI-8226 leukemia = system: RPMI-8226 leukemia
# RXF 393 renal = system: RXF 393 renal
# SF-268 CNS = system: SF-268 CNS
# SF-295 CNS = system: SF-295 CNS
# SF-539 CNS = system: SF-539 CNS
# SK-MEL-5 melanoma = system: SK-MEL-5 melanoma
# SN12C renal = system: SN12C renal
# SNB-19 CNS = system: SNB-19 CNS
# SNB-75 CNS = system: SNB-75 CNS
# SR leukemia = system: SR leukemia
# SW-620 colon = system: SW-620 colon
# TK-10 renal = system: TK-10 renal
# U251 CNS = system: U251 CNS
# UACC-257 melanoma = system: UACC-257 melanoma
# UACC-62 melanoma = system: UACC-62 melanoma
# UO-31 renal = system: UO-31 renal
# A498 renal = system: A498 renal
# BT-549 breast = system: BT-549 breast
# HCC-2998 colon = system: HCC-2998 colon
structure (smiles),measurement,setting,value
N=C(N)c1ccc(-c2ccc(-c3ccc(Cl)cc3)s2)nc1,GI50,ACHN renal,1.65 µM
same,TGI,ACHN renal,3 µM
same,GI50,DU-145 prostate,1.7 µM
same,TGI,DU-145 prostate,3.07 µM
same,GI50,MDA-MB-231 breast,1.35 µM
same,TGI,MDA-MB-231 breast,2.74 µM
same,GI50,MDA-MB-435,1.65 µM
same,TGI,MDA-MB-435,3.02 µM
same,GI50,OVCAR-4 ovarian,1.64 µM
same,TGI,OVCAR-4 ovarian,3.06 µM
same,GI50,OVCAR-5 ovarian,1.56 µM
same,TGI,OVCAR-5 ovarian,2.9 µM
same,GI50,SK-MEL-2 melanoma,2.21 µM
same,TGI,SK-MEL-2 melanoma,4.89 µM
same,GI50,SK-MEL-28 melanoma,1.62 µM
same,TGI,SK-MEL-28 melanoma,2.97 µM
same,GI50,SK-OV-3 ovarian,3.56 µM
same,TGI,SK-OV-3 ovarian,18.1 µM
same,GI50,T-47D breast,1.82 µM
same,TGI,T-47D breast,4.49 µM
O=c1[nH]cnc2sc(=S)c3c(c12)CCC3,TGI,786-0 renal,33.3 µM
same,TGI,A549 NSCLC,> 100 µM
same,TGI,ACHN renal,33.6 µM
same,TGI,CAKI-1 renal,49.4 µM
same,TGI,CCRF-CEM leukemia,49 µM
same,TGI,COLO 205 colon,62.7 µM
same,TGI,DU-145 prostate,> 100 µM
same,TGI,EKVX NSCLC,> 100 µM
same,TGI,HCT-116 colon,> 100 µM
same,TGI,HCT-15 colon,91.4 µM
same,TGI,HL-60(TB) leukemia,57.6 µM
same,TGI,HOP-62 NSCLC,> 100 µM
same,TGI,HOP-92 NSCLC,66.3 µM
same,TGI,HS 578T breast,> 100 µM
same,TGI,HT29 colon,> 100 µM
same,TGI,IGROV1 ovarian,> 100 µM
same,TGI,K-562 leukemia,29.2 µM
same,TGI,KM12 colon,> 100 µM
same,TGI,LOX IMVI melanoma,> 100 µM
same,TGI,M14 melanoma,> 100 µM
same,TGI,MALME-3M melanoma,98.2 µM
same,TGI,MCF7 breast,> 100 µM
same,TGI,MDA-MB-231 breast,> 100 µM
same,TGI,MDA-MB-435,> 100 µM
same,TGI,MOLT-4 leukemia,41.2 µM
same,TGI,NCI-H226 lung,72.7 µM
same,TGI,NCI-H23 lung,62.8 µM
same,TGI,NCI-H460 lung,> 100 µM
same,TGI,NCI-H522 lung,41.8 µM
same,TGI,NCI/ADR-RES ovarian,> 100 µM
same,TGI,OVCAR-3 ovarian,53.2 µM
same,TGI,OVCAR-4 ovarian,> 100 µM
same,TGI,OVCAR-5 ovarian,> 100 µM
same,TGI,OVCAR-8 ovarian,> 100 µM
same,TGI,PC-3 prostate,> 100 µM
same,TGI,RPMI-8226 leukemia,43 µM
same,TGI,RXF 393 renal,63.4 µM
same,TGI,SF-268 CNS,> 100 µM
same,TGI,SF-295 CNS,> 100 µM
same,TGI,SF-539 CNS,> 100 µM
same,TGI,SK-MEL-2 melanoma,> 100 µM
same,TGI,SK-MEL-28 melanoma,> 100 µM
same,TGI,SK-MEL-5 melanoma,42.1 µM
same,TGI,SK-OV-3 ovarian,> 100 µM
same,TGI,SN12C renal,> 100 µM
same,TGI,SNB-19 CNS,> 100 µM
same,TGI,SNB-75 CNS,> 100 µM
same,TGI,SR leukemia,35.5 µM
same,TGI,SW-620 colon,49.2 µM
same,TGI,T-47D breast,> 100 µM
same,TGI,TK-10 renal,61.9 µM
same,TGI,U251 CNS,> 100 µM
same,TGI,UACC-257 melanoma,94 µM
same,TGI,UACC-62 melanoma,> 100 µM
same,TGI,UO-31 renal,> 100 µM
CN(C)C(=O)C(F)(F)C(c1ccc(Br)cc1)C1C(=O)N(C)C(=O)N(C)C1=O (stereo unspecified),TGI,786-0 renal,> 100 µM
same,TGI,A498 renal,> 100 µM
same,TGI,A549 NSCLC,> 100 µM
same,TGI,ACHN renal,> 100 µM
same,TGI,BT-549 breast,> 100 µM
same,TGI,CAKI-1 renal,> 100 µM
same,TGI,CCRF-CEM leukemia,> 100 µM
same,TGI,COLO 205 colon,> 100 µM
same,TGI,DU-145 prostate,> 100 µM
same,TGI,EKVX NSCLC,> 100 µM
same,TGI,HCC-2998 colon,> 100 µM
same,TGI,HCT-116 colon,> 100 µM
same,TGI,HCT-15 colon,> 100 µM
same,TGI,HOP-62 NSCLC,> 100 µM
same,TGI,HOP-92 NSCLC,> 100 µM
same,TGI,K-562 leukemia,> 100 µM
same,TGI,KM12 colon,> 100 µM
same,TGI,LOX IMVI melanoma,> 100 µM
same,TGI,M14 melanoma,> 100 µM
same,TGI,MCF7 breast,> 100 µM
same,TGI,MDA-MB-231 breast,> 100 µM
same,TGI,MDA-MB-435,> 100 µM
same,TGI,NCI-H226 lung,> 100 µM
same,TGI,NCI-H23 lung,> 100 µM
same,TGI,NCI-H460 lung,> 100 µM
same,TGI,NCI/ADR-RES ovarian,> 100 µM
same,TGI,OVCAR-3 ovarian,> 100 µM
same,TGI,OVCAR-4 ovarian,> 100 µM
same,TGI,OVCAR-5 ovarian,> 100 µM
same,TGI,PC-3 prostate,> 100 µM
same,TGI,RPMI-8226 leukemia,> 100 µM
same,TGI,RXF 393 renal,> 100 µM
same,TGI,SF-268 CNS,> 100 µM
same,TGI,SF-295 CNS,> 100 µM
same,TGI,SK-MEL-2 melanoma,> 100 µM
same,TGI,SK-MEL-28 melanoma,> 100 µM
same,TGI,SK-MEL-5 melanoma,> 100 µM
same,TGI,SK-OV-3 ovarian,> 100 µM
same,TGI,SNB-19 CNS,> 100 µM
same,TGI,SNB-75 CNS,> 100 µM
same,TGI,SW-620 colon,> 100 µM
same,TGI,T-47D breast,> 100 µM
same,TGI,TK-10 renal,> 100 µM
same,TGI,U251 CNS,> 100 µM
same,TGI,UACC-257 melanoma,> 100 µM
same,TGI,UACC-62 melanoma,> 100 µM
same,TGI,UO-31 renal,> 100 µM
CSc1ncc2c(n1)-c1ccccc1OC2NC(C)(C)C (stereo unspecified),TGI,786-0 renal,> 100 µM
same,TGI,A498 renal,7.36 µM
same,TGI,A549 NSCLC,> 100 µM
same,TGI,ACHN renal,> 100 µM
same,TGI,BT-549 breast,> 100 µM
same,TGI,CAKI-1 renal,> 100 µM
same,TGI,CCRF-CEM leukemia,> 100 µM
same,TGI,COLO 205 colon,> 100 µM
same,TGI,DU-145 prostate,> 100 µM
same,TGI,EKVX NSCLC,> 100 µM
same,TGI,HCC-2998 colon,87 µM
same,TGI,HCT-116 colon,> 100 µM
same,TGI,HCT-15 colon,> 100 µM
same,TGI,HL-60(TB) leukemia,> 100 µM
same,TGI,HOP-62 NSCLC,> 100 µM
same,TGI,HOP-92 NSCLC,> 100 µM
same,TGI,HS 578T breast,> 100 µM
same,TGI,HT29 colon,> 100 µM
same,TGI,K-562 leukemia,> 100 µM
same,TGI,KM12 colon,> 100 µM
same,TGI,LOX IMVI melanoma,> 100 µM
same,TGI,M14 melanoma,> 100 µM
same,TGI,MALME-3M melanoma,> 100 µM
same,TGI,MCF7 breast,> 100 µM
same,TGI,MDA-MB-231 breast,> 100 µM
same,TGI,MDA-MB-435,> 100 µM
same,TGI,MOLT-4 leukemia,> 100 µM
same,TGI,NCI-H226 lung,> 100 µM
same,TGI,NCI-H23 lung,> 100 µM
same,TGI,NCI-H460 lung,> 100 µM
same,TGI,NCI-H522 lung,74.5 µM
same,TGI,OVCAR-3 ovarian,> 100 µM
same,TGI,OVCAR-4 ovarian,> 100 µM
same,TGI,OVCAR-5 ovarian,> 100 µM
same,TGI,OVCAR-8 ovarian,> 100 µM
same,TGI,PC-3 prostate,> 100 µM
same,TGI,RPMI-8226 leukemia,> 100 µM
same,TGI,RXF 393 renal,> 100 µM
same,TGI,SF-268 CNS,> 100 µM
same,TGI,SF-295 CNS,> 100 µM
same,TGI,SF-539 CNS,> 100 µM
same,TGI,SK-MEL-28 melanoma,> 100 µM
same,TGI,SK-OV-3 ovarian,> 100 µM
same,TGI,SN12C renal,> 100 µM
same,TGI,SNB-19 CNS,> 100 µM
same,TGI,SNB-75 CNS,88.1 µM
same,TGI,SR leukemia,> 100 µM
same,TGI,SW-620 colon,> 100 µM
same,TGI,T-47D breast,> 100 µM
same,TGI,TK-10 renal,> 100 µM
same,TGI,U251 CNS,> 100 µM
same,TGI,UACC-257 melanoma,> 100 µM
same,TGI,UACC-62 melanoma,> 100 µM
same,TGI,UO-31 renal,> 100 µM
